For data set [1], the system named is MOLM-13. The experiment in a line: Cytotoxicity against human MOLM-13 cells assessed as maximum inhibition of cell growth incubated for 4 days by cellTiter-Glo assay relative to control. It counts as functional. Conditions: time 4 day. (Cellular ATP, detected with luciferase, serves as a proxy for viable cell number.)
Data set [2] relates to MV4-11. Put plainly: Cytotoxicity against human MV4-11 cells assessed as maximum inhibition of cell growth incubated for 4 days by cellTiter-Glo assay relative to control. In kind it is functional. The note with it: time 4 day.
In data set [3] the test system is HL-60. The experiment in a line: Cytotoxicity against human HL-60 cells assessed as maximum inhibition of cell growth incubated for 4 days by cellTiter-Glo assay relative to control. It counts as functional. Conditions: time 4 day.
In data set [4] the test system is RS4-11. The experiment in a line: Cytotoxicity against human RS4-11 cells assessed as maximum inhibition of cell growth incubated for 4 days by cellTiter-Glo assay relative to control. Conditions: time 4 day. In kind it is functional.
The test system of data set [5] is MOLM-13. The experiment in a line: Cytotoxicity against human MOLM-13 cells assessed as inhibition of cell growth incubated for 4 days by cellTiter-Glo assay. It counts as functional, cell-based. Conditions: MOLM-13, 96 h.
The test system of data set [6] is MV4-11. The experiment in a line: Cytotoxicity against human MV4-11 cells assessed as inhibition of cell growth incubated for 4 days by cellTiter-Glo assay. It counts as functional, cell-based. The note with it: MV4-11, 96 h.
Data set [7] has as its system HL-60. The experiment in a line: Cytotoxicity against human HL-60 cells assessed as inhibition of cell growth incubated for 4 days by cellTiter-Glo assay. In kind it is functional, cell-based. The note with it: HL-60, 96 h.
For data set [8], the system named is RS4-11. The experiment in a line: Induction of cell cycle arrest in human RS4-11 cells assessed as accumulation at G1 phase at 1 uM measured after 8 hrs by PI staining based flow cytometric analysis. It counts as functional. (In general: A flow cytometer gives signals particle by particle.)
Data set [9] relates to RS4-11. Put plainly: Cytotoxicity against human RS4-11 cells assessed as inhibition of cell growth incubated for 4 days by cellTiter-Glo assay. In kind it is functional, cell-based. The note with it: RS4-11, 96 h.
Data set [10] can be described thus: Toxicity in SCID mouse xenografted with human RS4-11 cells assessed as body weight loss at 1 mg/kg, ip administered three times a week for 2 weeks relative to control. Conditions: in vivo, 336 h. It counts as organism-based.
Data set [11] concerns the target T1, Histone acetyltransferase p300 (Homo sapiens, UniProt Q09472). Put plainly: Induction of p300 degradation in human RS4-11 cells assessed as maximal degradation incubated for 4 hrs by Western blot assay relative to control. In kind it is cell-based. (Immunoblotting shows a protein as a band on a membrane.)
Data set [12] concerns RS4-11. Put plainly: Antitumor activity against human RS4-11 cells xenografted in SCID mouse assessed as tumor growth inhibition at 1 mg/kg, ip administered twice a week on day 1 and day 4 for 2 weeks relative to control. It counts as functional. Also noted: scale not given: the % may be the effect or the level left.
Data set [13] deals with RS4-11. Put plainly: Antitumor activity against human RS4-11 cells xenografted in SCID mouse assessed as tumor growth inhibition at 0.3 mg/kg, ip administered five days a week for 2 weeks relative to control. In kind it is functional. More on the design: scale not given: the % may be the effect or the level left.
For data set [14], the target named is T2, Non-selective voltage-gated ion channel VDAC2 (Homo sapiens) (UniProt P45880).
T2 sequence (whole entry): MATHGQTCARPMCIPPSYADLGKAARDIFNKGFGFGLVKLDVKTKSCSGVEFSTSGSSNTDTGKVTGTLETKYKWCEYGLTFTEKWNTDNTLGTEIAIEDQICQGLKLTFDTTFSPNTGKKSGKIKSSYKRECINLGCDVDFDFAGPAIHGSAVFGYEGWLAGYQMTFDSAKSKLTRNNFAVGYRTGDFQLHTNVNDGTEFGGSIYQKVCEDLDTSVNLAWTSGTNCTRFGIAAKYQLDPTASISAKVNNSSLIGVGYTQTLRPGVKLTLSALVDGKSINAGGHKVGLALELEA
The experiment in a line: Induction of VDAC2 degradation in human RS4-11 cells assessed as fold reduction in protein level at 10 nM incubated for 4 hrs by Western blot analysis. In kind it is cell-based.

The subject of data set [15] is RS4-11. The experiment in a line: In vivo induction of CBP degradation in human RS4-11 cells xenografted in SCID mouse at 3 mg/kg, ip measured after 3 to 6 hrs by Western blot analysis. Conditions: time 3-6 hrs. It counts as functional, organism-based.
A short description of data set [16]: Drug concentration in SCID mouse tumor xenografted with RS4-11 cells at 1 mg/kg, ip measured after 3 hrs by LC-HRMS method. It counts as ADME, organism-based, Neoplasm. The note with it: read-out: Ct.
The test system of data set [17] is RS4-11. Put plainly: Downregulation of MYC gene expression in human RS4-11 cells at 1 nM measured after 8 hrs by qRT-PCR analysis. In kind it is functional, cell-based.
Data set [18] in a line: Toxicity in SCID mouse xenografted with human RS4-11 cells assessed as body weight loss at 3 mg/kg, ip administered once a week on day 1 for 2 weeks relative to control. In kind it is organism-based. The note with it: in vivo, 336 h.
Data set [19] concerns RS4-11. Put plainly: Downregulation of MYB gene expression in human RS4-11 cells at 1 nM measured after 8 hrs by qRT-PCR analysis. It counts as functional, cell-based.
Data set [20] can be described thus: Toxicity in SCID mouse xenografted with human RS4-11 cells assessed as body weight loss at 1 mg/kg, ip administered twice a week on day 1 and day 4 for 2 weeks relative to control. In kind it is organism-based. Conditions: in vivo, 336 h.
In data set [21] the target is T1, Histone acetyltransferase p300. Put plainly: Induction of p300 degradation in human RS4-11 cells at 10 nM incubated for 3 hrs by Proteomics analysis. It counts as cell-based.
Data set [22] can be described thus: Toxicity in SCID mouse xenografted with human RS4-11 cells assessed as body weight loss at 0.3 mg/kg, ip administered five days a week for 2 weeks relative to control. In kind it is organism-based. The note with it: in vivo, 336 h.
The subject of data set [23] is RS4-11. The experiment in a line: Antitumor activity against human RS4-11 cells xenografted in SCID mouse assessed as tumor growth inhibition at 3 mg/kg, ip administered once a week on day 1 for 2 weeks relative to control. More on the design: scale not given: the % may be the effect or the level left. In kind it is functional.
For data set [24], the system named is Mus musculus. The experiment in a line: In vivo induction of p300 degradation in human RS4-11 cells xenografted in SCID mouse at 3 mg/kg, ip measured after 24 to 48 hrs by Western blot analysis. It counts as functional, organism-based. The note with it: time 24-48 hrs.
The target of data set [25] is T3, CREB-binding protein (Homo sapiens, UniProt Q92793). The experiment in a line: Induction of CBP degradation in human RS4-11 cells incubated for 4 hrs by Western blot assay. It counts as cell-based.
Data set [26] has as its target Bromodomain-containing protein 4 (Homo sapiens) (UniProt O60885). Put plainly: Induction of BRD4 degradation in human RS4-11 cells at 10 nM incubated for 4 hrs by Western blot analysis. In kind it is cell-based.
For data set [27], the target named is T3, CREB-binding protein. The experiment in a line: Induction of CBP degradation in human RS4-11 cells assessed as maximal degradation incubated for 4 hrs by Western blot assay. In kind it is cell-based.
Target sequence in this assay (Q92793 2-2442 limits assumed): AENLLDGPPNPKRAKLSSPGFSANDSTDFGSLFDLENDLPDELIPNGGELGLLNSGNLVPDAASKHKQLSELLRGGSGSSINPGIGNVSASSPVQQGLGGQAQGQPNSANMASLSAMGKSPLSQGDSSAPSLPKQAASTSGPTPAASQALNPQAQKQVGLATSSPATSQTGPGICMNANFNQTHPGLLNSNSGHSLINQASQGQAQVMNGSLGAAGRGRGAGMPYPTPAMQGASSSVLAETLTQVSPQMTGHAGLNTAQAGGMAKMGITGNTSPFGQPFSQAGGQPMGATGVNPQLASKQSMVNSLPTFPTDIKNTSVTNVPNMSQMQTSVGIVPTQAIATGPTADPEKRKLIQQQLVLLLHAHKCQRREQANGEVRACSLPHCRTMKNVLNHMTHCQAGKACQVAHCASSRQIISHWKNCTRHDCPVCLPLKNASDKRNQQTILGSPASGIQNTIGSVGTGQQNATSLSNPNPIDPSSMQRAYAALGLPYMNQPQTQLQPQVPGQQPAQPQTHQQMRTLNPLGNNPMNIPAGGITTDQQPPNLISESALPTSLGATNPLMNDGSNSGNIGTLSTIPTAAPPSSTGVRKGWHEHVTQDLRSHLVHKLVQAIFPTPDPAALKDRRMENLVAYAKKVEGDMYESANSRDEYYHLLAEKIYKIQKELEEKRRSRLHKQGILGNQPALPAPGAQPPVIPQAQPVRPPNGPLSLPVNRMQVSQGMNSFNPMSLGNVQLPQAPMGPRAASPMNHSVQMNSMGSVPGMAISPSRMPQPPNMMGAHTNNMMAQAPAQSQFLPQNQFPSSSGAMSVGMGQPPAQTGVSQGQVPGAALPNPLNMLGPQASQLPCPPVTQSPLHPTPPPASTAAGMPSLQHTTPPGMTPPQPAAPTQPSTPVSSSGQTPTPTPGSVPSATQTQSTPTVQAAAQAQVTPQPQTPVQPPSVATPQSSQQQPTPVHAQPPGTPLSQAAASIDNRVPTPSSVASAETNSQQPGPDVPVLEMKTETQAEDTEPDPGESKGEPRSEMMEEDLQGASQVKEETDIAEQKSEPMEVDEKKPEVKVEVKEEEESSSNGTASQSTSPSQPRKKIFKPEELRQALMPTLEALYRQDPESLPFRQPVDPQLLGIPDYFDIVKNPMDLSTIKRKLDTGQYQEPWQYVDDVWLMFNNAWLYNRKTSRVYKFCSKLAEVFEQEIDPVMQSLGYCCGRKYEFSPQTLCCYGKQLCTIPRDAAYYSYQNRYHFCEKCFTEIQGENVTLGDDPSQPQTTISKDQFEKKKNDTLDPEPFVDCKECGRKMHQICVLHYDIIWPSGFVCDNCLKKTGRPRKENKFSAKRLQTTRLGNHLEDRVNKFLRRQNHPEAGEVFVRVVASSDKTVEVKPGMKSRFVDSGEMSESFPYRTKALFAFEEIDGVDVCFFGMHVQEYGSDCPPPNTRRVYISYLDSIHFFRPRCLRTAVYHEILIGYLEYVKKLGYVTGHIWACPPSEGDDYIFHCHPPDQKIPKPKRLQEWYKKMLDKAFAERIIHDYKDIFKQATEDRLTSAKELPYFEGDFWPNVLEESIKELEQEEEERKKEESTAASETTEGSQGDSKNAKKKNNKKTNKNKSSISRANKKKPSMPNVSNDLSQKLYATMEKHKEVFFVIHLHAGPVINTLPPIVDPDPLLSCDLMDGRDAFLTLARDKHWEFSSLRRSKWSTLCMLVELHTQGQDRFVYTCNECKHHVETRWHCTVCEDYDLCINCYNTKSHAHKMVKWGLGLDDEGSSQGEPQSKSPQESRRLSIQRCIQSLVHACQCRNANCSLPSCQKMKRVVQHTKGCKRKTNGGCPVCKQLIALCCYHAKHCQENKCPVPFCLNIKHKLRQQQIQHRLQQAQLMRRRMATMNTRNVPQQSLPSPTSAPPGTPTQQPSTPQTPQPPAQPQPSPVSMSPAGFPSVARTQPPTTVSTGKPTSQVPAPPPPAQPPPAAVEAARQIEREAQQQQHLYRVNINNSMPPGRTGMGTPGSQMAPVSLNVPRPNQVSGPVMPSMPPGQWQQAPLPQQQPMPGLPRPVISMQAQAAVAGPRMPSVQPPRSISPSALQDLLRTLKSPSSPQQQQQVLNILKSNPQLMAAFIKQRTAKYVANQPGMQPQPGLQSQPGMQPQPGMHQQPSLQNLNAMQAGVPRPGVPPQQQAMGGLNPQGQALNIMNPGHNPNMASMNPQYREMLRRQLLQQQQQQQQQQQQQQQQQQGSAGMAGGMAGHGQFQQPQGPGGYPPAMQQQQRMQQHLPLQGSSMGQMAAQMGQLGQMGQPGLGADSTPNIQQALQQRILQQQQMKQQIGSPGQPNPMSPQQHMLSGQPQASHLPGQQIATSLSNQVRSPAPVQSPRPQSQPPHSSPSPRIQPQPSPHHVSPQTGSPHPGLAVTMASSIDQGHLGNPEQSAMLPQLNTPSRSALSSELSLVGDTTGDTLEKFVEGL
For data set [28], the target named is T1, Histone acetyltransferase p300. Put plainly: Induction of p300 degradation in human RS4-11 cells incubated for 4 hrs by Western blot assay. It counts as cell-based.
Data set [29] can be described thus: Drug concentration in IP dosed SCID mouse tumor xenografted with RS4-11 cells measured after 24 to 48 hrs by LC-HRMS method. The note with it: in vivo, time 24-48 hrs. In kind it is ADME, organism-based, Neoplasm.
The nature of data set [30]: Drug concentration in SCID mouse tumor xenografted with RS4-11 cells at 3 mg/kg, ip measured after 3 hrs by LC-HRMS method. It counts as ADME, organism-based, Neoplasm. The note with it: read-out: Ct.
Data set [31] deals with T3, CREB-binding protein. The experiment in a line: Induction of CBP degradation in human RS4-11 cells at 10 nM incubated for 3 hrs by Proteomics analysis. It counts as cell-based.
Target sequence in this assay (Q92793 2-2442 limits assumed): as above
The target of data set [32] is Non-selective voltage-gated ion channel VDAC1 (Homo sapiens) (UniProt P21796). The experiment in a line: Induction of VDAC1 degradation in human RS4-11 cells assessed as fold reduction in protein level at 10 nM incubated for 4 hrs by Western blot analysis. It counts as cell-based.
Data set [33] relates to Mus musculus. Put plainly: In vivo induction of CBP degradation in human RS4-11 cells xenografted in SCID mouse at 3 mg/kg, ip measured after 24 to 48 hrs by Western blot analysis. Conditions: time 24-48 hrs. In kind it is functional, organism-based.
For data set [34], the system named is Mus musculus. The experiment in a line: In vivo induction of p300 degradation in human RS4-11 cells xenografted in SCID mouse at 1 mg/kg, ip measured after 3 hrs by Western blot analysis. In kind it is functional, organism-based.
Data set [35] has as its system RS4-11. The experiment in a line: Antitumor activity against human RS4-11 cells xenografted in SCID mouse assessed as tumor growth inhibition at 1 mg/kg, ip administered thrice a week on day 1, 3 and 5 for 2 weeks relative to control. It counts as functional. Also noted: scale not given: the % may be the effect or the level left.
Data set [36] deals with RS4-11. The experiment in a line: In vivo induction of p300 degradation in human RS4-11 cells xenografted in SCID mouse at 3 mg/kg, ip measured after 3 to 6 hrs by Western blot analysis. It counts as functional, organism-based. The note with it: time 3-6 hrs.
Data set [37] concerns Mus musculus. The experiment in a line: In vivo induction of CBP degradation in human RS4-11 cells xenografted in SCID mouse at 1 mg/kg, ip measured after 3 hrs by Western blot analysis. In kind it is functional, organism-based.

pEC50, pIC50: −log10 of the molar value. “And” between values parts separate entries of the source, which are not always exact repeats. Identical values can stand only once. The source made the active and inactive calls. No cut-off for these calls is given here. A value given as a limit tells only on which side of the number the result lay.

From ChEMBL document CHEMBL5338817, “Discovery of Exceptionally Potent, Selective, and Efficacious PROTAC Degraders of CBP and p300 Proteins” (J Med Chem, 2023) come the findings set out here.

What is called pIC50 is the negative decadic logarithm of the IC50, by convention in mol/L. A word on the Emax: it is the greatest response seen or fitted, relative to the assay's reference. A word on the pEC50: it is −log10 of the EC50, conventionally taken in molar units.

T1 sequence (Q09472 whole entry): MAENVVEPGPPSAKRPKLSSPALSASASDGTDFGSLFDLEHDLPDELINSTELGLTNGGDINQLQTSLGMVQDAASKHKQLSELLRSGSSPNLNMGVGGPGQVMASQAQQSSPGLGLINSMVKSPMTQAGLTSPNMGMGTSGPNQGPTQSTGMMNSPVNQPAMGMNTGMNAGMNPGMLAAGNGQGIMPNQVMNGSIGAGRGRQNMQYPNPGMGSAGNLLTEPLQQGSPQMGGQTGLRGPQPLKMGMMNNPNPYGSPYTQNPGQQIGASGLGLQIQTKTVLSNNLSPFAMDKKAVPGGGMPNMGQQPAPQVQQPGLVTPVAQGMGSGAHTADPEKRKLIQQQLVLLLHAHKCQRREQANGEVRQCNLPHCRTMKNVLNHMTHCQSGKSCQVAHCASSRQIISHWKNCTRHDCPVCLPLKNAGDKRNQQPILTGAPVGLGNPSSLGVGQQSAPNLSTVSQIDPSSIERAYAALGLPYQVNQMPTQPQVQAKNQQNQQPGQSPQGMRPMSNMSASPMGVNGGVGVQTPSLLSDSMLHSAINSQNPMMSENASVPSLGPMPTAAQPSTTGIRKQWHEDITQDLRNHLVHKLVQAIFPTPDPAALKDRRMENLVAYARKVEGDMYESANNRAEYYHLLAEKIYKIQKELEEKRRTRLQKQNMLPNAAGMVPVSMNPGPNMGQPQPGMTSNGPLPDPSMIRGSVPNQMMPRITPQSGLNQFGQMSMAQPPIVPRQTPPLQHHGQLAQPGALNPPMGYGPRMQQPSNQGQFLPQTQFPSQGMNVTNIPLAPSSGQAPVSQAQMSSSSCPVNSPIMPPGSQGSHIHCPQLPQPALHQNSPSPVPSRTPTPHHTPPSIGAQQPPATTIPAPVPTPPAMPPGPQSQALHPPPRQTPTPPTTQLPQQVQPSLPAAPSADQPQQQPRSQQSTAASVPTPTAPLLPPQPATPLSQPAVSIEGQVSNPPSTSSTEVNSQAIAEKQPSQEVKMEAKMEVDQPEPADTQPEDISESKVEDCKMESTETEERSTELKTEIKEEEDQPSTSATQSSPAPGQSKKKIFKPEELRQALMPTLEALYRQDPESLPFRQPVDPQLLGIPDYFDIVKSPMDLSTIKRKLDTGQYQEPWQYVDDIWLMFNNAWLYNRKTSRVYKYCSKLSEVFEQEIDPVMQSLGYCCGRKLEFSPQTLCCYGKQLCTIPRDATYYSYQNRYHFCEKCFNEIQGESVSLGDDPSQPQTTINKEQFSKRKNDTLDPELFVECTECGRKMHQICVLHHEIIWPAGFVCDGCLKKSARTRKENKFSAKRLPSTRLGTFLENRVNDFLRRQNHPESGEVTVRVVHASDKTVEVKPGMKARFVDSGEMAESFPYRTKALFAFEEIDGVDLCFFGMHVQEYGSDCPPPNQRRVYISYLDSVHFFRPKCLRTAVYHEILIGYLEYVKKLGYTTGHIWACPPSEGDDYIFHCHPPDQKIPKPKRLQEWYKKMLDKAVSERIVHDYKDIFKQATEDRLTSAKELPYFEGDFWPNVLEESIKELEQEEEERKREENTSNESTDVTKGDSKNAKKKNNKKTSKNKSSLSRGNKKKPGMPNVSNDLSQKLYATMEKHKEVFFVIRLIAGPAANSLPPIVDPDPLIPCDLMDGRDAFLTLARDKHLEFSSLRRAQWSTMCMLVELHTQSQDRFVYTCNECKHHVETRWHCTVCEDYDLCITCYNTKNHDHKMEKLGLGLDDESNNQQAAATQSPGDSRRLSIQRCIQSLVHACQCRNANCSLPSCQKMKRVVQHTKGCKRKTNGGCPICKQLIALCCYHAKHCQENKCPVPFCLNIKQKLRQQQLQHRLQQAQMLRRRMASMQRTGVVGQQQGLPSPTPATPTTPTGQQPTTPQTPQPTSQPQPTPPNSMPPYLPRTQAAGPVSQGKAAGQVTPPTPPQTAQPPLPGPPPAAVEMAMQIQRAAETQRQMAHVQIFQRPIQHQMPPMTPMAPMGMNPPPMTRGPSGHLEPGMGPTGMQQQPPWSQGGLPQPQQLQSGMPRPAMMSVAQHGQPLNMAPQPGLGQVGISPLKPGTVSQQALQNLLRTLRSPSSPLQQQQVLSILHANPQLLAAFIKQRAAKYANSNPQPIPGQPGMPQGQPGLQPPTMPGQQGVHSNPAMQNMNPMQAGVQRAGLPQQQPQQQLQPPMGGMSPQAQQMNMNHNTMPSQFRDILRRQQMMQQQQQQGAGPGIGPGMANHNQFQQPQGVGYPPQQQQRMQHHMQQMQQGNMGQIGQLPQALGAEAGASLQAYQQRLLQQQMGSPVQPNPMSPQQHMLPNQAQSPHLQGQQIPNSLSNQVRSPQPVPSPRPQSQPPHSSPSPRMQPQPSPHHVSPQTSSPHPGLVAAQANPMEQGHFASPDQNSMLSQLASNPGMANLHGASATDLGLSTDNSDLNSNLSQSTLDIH
Chain of Non-selective voltage-gated ion channel VDAC1 (Homo sapiens) (P21796 whole entry): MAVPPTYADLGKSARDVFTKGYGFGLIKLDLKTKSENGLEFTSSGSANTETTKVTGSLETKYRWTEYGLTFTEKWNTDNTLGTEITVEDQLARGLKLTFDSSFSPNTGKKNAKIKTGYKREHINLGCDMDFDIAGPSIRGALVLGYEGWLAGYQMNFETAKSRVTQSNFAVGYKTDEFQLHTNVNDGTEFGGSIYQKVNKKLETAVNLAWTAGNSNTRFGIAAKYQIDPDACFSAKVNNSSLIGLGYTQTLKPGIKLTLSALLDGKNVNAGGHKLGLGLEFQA

Consider `CNC(=O)c1ccc(-c2cc3cccc(-c4nn(C5CCOCC5)c5c4CN(C(C)=O)CC5)c3cn2)cn1`, for which the Imax in [1] amounted to 98%; in [2], 94%; in data set [3] it was 99%; in data set [4], 75%.

For `CNC(=O)Nc1ccc2c(c1)CC[C@]21CN(CC(=O)N(Cc2ccc(F)cc2)[C@H](C)C(F)(F)F)C(=O)O1`, the pIC50 in [5] was 6.62; in data set [6], 6.81; in data set [7] it was 6.82. Further, the Imax in data set [1] was 96%; in data set [2], 94%; in data set [3], 99%; in data set [4] (96 h), 93.5% and 89% and 99%.

Turning to `CO[C@H]1CC[C@@H](n2c(C3CCCC(=O)N3c3ccc(F)c(F)c3)nc3cc(-c4c(C)noc4C)ccc32)CC1` (some centres not stated), the pIC50 in [5] is 7.64; in data set [6] it was 7.29; in [7] it was 7.52; in data set [9], 6.26. Moreover, the Imax amounted to 99% in [1], 98% in data set [2], 99% in data set [3] and 99.8% in [4]. The outcome in data set [8] was Active.

Consider `CC(=O)N1CCc2c(c(-c3cccc4cc(-c5ccc(C(=O)NC6CCN(c7ccc8c(c7)CN(C7CCC(=O)NC7=O)C8=O)CC6)nc5)ncc34)nn2C2CCOCC2)C1` (configuration not stated), for which the Activity in data set [10] was under 3%; in data set [12] it was 81%; in [13] it was 68%; in data set [18], under 10%; in [20], under 10%; in data set [22], under 3%. The Activity in [23] is 81%; in [35], 68%. Moreover, the Emax in data set [11] and in [27] was 99% throughout. The pIC50 in [5] was 8.64; in [6], 10.40; in [7], 9.27; in [9] it was 10.00. The fold change (FC) in [14] and in [32] was 2 throughout. Moreover, the result in data set [15], in [17], in [19], in data set [21], in [8] and in data set [31] was Active. The result in data set [34], in data set [36] and in [37] was Active. For the same compound, the concentration at 3 h in [16] stood at 57.5 ng/g; in data set [30] it was 240 ng/g. The Imax came out at 96% in data set [1], 99% in data set [2], 96% in data set [3] and 94% in [4]. Also, the outcome in data set [24], in [26] and in [33] was inactive. Besides, the pEC50 in data set [25] was 10.30; in data set [28] it was 9.70. For the same compound, in [29], the Drug uptake result is listed as “Not Active”.
